Results on 19 molecules are retold here after patent publication US9884126B2, “Anti-wall teichoic antibodies and conjugates” (priority 2013, dated 2018).

≈ marks a conversion by molar mass, not a printed value. Entries after “also recorded” stand apart in the source; their conditions may differ.

In assay [1] the test system is MRSA (NRS384 strain of USA300). Description: MIC determination / killing of intracellular bacteria in mouse peritoneal macrophages. It is filed as cell-based, Staphylococcus aureus. Conditions: for killing of intracellular MRSA sequestered inside macrophages: doses including clinically achieveable serum levels.
Assay [2] has as its system MRSA (NRS384 strain of USA300). As to the kind of experiment: MIC determination for extracellular bacteria. Type of assay: cell-based. Conditions: Staphylococcus aureus, read-out: Extracellular MRSA MIC. How it is done:
Dilutions of the antibiotic were made in quadruplicate in 96 well culture dishes. MRSA (NRS384 strain of USA300) was taken from an exponentially growing culture and diluted to 1×10^4 CFU/mL. Bacteria was cultured in the presence of antibiotic for 18-24 hours with shaking at 37° C. and bacterial growth was determined by reading the Optical Density (OD) at […]. The MIC was determined to be the dose of antibiotic that inhibited bacterial growth by >90%.

In assay [3] the test system is MRSA. As to the kind of experiment: Intravenous infection model, established infection in CB17.SCID mice. It is filed as in vivo. Conditions: treated 1 day after infection; AAC 50 mg/Kg, antibiotic 0.5 mg/Kg; kidneys day 4. On the procedure:
Mice were treated with the AAC 30 minutes after infection. To better replicate conditions likely to occur in MRSA patients seeking treatment, it was determined whether the AAC is effective at clearing an established infection and that linking of the antibiotic to an anti-S. aureus antibody provides a definite advantage over treatment with antibiotic alone. To this end, the efficacy of AAC with an equivalent dose of the antibiotic dimethyl-pipBOR was compared.
One day after infection, the mice were treated with 50 mg/Kg of S4497 antibody, 50 mg/Kg of S4497 dimethyl-pipBOR AAC 105 or with 0.5 mg/Kg of dimethyl-pipBOR antibiotic 7, the equivalent dose of antibiotic that is contained in 50 mg/Kg of AAC). Mice were sacrificed 4 days after infection and the total number of surviving bacteria per mouse (2 kidneys pooled) was determined by plating.
7 week old female mice were used for all in vivo experiments and infections were carried out by intravenous injection into the tail vein. A/J mice (Jackson Lab) were infected with a dose of 2×10^6 CFU. Balb/c mice (Charles River Laboratories, Hollister, Calif.) were infected with a dose of 2×10^7 CFU. […] The total number of bacteria recovered per mouse (2 kidneys) was determined by plating serial dilutions of the tissue homogenate in PBS 0.05% Tween on Tryptic Soy Agar with 5% defibrinated sheep blood.

For assay [4], the system named is USA300 strain of MRSA (NRS384). Description: In vitro macrophage assay (intracellular killing of opsonized MRSA). It is filed as cell-based, Staphylococcus aureus. Conditions: for Macrophage assay activity: in vitro macrophage assay (Example 18), grades 0, weak, 1+ not defined; for CFU/well after treatment: 100 μg/mL, reduced from 10,000 CFU/well. How it is done: (§1) Peritoneal macrophages were isolated from the peritoneum of 6-8 week old Balb/c mice (Charles River Laboratories, Hollister, Calif.). To increase the yield of macrophages, mice were pre-treated by intraperitoneal injection with 1 mL of thioglycolate media (Becton Dickinson). The thioglycolate media was prepared at a concentration of 4% in water, sterilized by autoclaving, and aged for 20 days to 6 months prior to use. Peritoneal macrophages were harvested 4 days post treatment with thioglycolate by washing the peritoneal cavity with cold phosphate buffered saline. Macrophages were plated in Dulbecco's Modified Eagle Medium (DMEM) supplemented with 10% Fetal Calf Serum, and 10 mM HEPES, without antibiotics, at a density of 4×10^5 cells/well in 24 well culture dishes. Macrophages were cultured over night to permit adherence to the plate. This assay was also utilized to test intracellular killing in non-phagocytic cell types. MG63 (CRL-1427) and A549 (CCL185) cell lines were obtained from ATCC and maintained in RPMI 1640 tissue culture media supplemented with 10 mM Hepes and 10% Fetal Calf Serum (RPMI-10). HUVEC cells were obtained from Lonza and maintained in EGM Endothelial Cell Complete Media (Lonza, Walkersville, Md.).

The next assay relates to MRSA (USA300). Description: Peritonitis model (intraperitoneal infection). Type of assay: in vivo, A/J mice. The note with it: 50 mg/Kg thirty minutes after infection; 2 days. The text has this:
An in vivo peritonitis model in mice was established to test the efficacy of AAC. In this model, mice are infected by intraperitoneal injection (I.P.) of MRSA and the bacterial load is monitored 2 days after infection in the peritoneal fluid and kidney. Bacteria harvested from the peritoneum could be found either as free floating extracellular bacteria or internalized inside peritoneal cells—primarily neutrophils and macrophages—that are recruited to the site of the infection.
Intraperitoneal infection model in A/J mice. Mice were infected with 5×10^7 CFU of MRSA by intraperitoneal injection and treated with 50 mg/Kg of S4497 antibody alone or with 50 mg/Kg of the S4497-pipBOR AAC 102 by intraperitoneal injection (protocol 11-2032A). Mice were sacrificed 2 days post infection and the total bacterial load was assessed in the peritoneal supernatant (Extracellular bacteria), peritoneal cells (Intracellular bacteria) or in the kidney.
A/J mice were infected with USA300 and administered 50 mg/Kg of either S4497 antibody or S4497-pipBOR AAC 102 thirty minutes after infection. After 2 days, the mice were sacrificed and bacterial loads were monitored in the peritoneal wash and the kidney. To distinguish between extracellular and intracellular bacteria, the peritoneal wash was centrifuged gently to separate the supernatant, containing extracellular bacteria, and the peritoneal cells. […]

For assay [5], the system named is MRSA (USA300 strain). Description: Intravenous infection model in A/J mice. It is filed as in vivo.
Assay [6] deals with MRSA. As to the kind of experiment: Cathepsin release / growth inhibition assay. Type of assay: cell-based, S. aureus. The note with it: overnight culture, up to 10 μg/mL of AAC. How it is done:
An AAC comprising antibody rF1, which binds to a family of cell wall associated proteins was conjugated to a rifamycin derivative. S. aureus (Newman strain) was treated with various doses of the rF1-AAC or with equivalent doses of either antibody alone, rifampicin alone or a mixture of antibody and free rifampicin to permit antibody binding to the bacteria (opsonization) and after 1 hour incubation the opsonized bacteria were fed to macrophages (FIG. 7A).
See: page 863 of Dubowchik et al (2002) Bioconj. Chem. 13:855-869, incorporated by reference for the purposes of this assay. Cathepsin B (from bovine spleen, SIGMA C7800) was added at 10 μg/mL and the samples were incubated for 1 hour at 37° C. As a control, AAC were incubated in buffer alone. The reaction was stopped by addition of 10 volumes of bacterial growth media, Tryptic Soy Broth pH 7.4 (TSB). To estimate the total release of active antibiotic, serial dilutions of the reaction mixture were made in quadruplicate in TSB in 96 well plates and the USA300 strain of S. aureus was added to each well at a final density of 2×10^3 CFU/mL. The cultures were incubated over night at […] with shaking and bacterial growth was measured by reading absorbance at 630 nm using a plate reader.

Assay [7] deals with MRSA (USA300 strain). Description: Intracellular killing in macrophages and non-phagocytic cell types (MG63, A549, HUVEC). Type of assay: cell-based, Staphylococcus aureus. Conditions: 50 μg/mL, macrophages.
Source text: MRSA is able to invade a number of non-phagocytic cell types including osteoblasts and various epithelial and endothelial cell types (Garzoni and Kelly, (2008) Trends in Microbiology). MRSA is able to infect an osteoblast cell line (MG63), an airway epithelial cell line (A549) and primary cultures of human umbilical vein endothelial cells (HUVEC). […] The dashed line indicates the limit of detection for the assay.
as §1, with “MG63 (CRL-1427) and A549 (CCL185) cell lines were obtained from ATCC and maintained in RPMI 1640 tissue culture media supplemented with 10 mM Hepes and 10% Fetal Calf Serum (RPMI-10). HUVEC cells were obtained from Lonza and maintained in EGM Endothelial Cell Complete Media (Lonza, Walkersville, Md.).” left out

For `CCCCCCCCCC(=O)N[C@@H](Cc1c[nH]c2ccccc12)C(=O)N[C@H](CC(N)=O)C(=O)N[C@@H](CC(=O)O)C(=O)N[C@@H]1C(=O)NCC(=O)N[C@@H](CCCN)C(=O)N[C@@H](CC(=O)O)C(=O)N[C@H](C)C(=O)N[C@@H](CC(=O)O)C(=O)NCC(=O)N[C@H](CO)C(=O)N[C@@H]([C@H](C)CC(=O)O)C(=O)N[C@@H](CC(=O)c2ccccc2N)C(=O)O[C@@H]1C` [Daptomycin], the MIC in assay [1] (Staphylococcus aureus, 24 h, MRSA inside mouse peritoneal macrophages, […]) was more than 100 µg/mL; in assay [2], 4 µg/mL (≈ 2.47 µM). In assay [1], the “killing of intracellular MRSA sequestered inside macrophages” value is reported as “failed to kill”. As to `CC(=O)NC[C@H]1CN(c2ccc(N3CCOCC3)c(F)c2)C(=O)O1` [Linezolid], the “killing of intracellular MRSA sequestered inside macrophages” value in assay [1] was “failed to kill”.

On to `CO[C@H]1/C=C/O[C@@]2(C)Oc3c(C)c(O)c4c(=O)c(c5oc6cc(N7CCC(N(C)C)CC7)cc(O)c6nc-5c4c3C2=O)NC(=O)/C(C)=C\C=C\[C@H](C)[C@H](O)[C@@H](C)[C@@H](O)[C@@H](C)[C@H](OC(C)=O)[C@@H]1C` [dimethyl-pipBOR, dimethylpiperidyl benzoxazino rifamycin], for which, in the assay with MRSA [3], the “efficacy against established infection” value is recorded as “failed to clear the infection”. Also, the “killing of intracellular MRSA as free antibiotics relative to rifampicin” value in assay [1] is “more potent than rifampicin”. Take “piperidyl benzoxazino rifamycin [pipBOR]”: the “killing of intracellular MRSA as free antibiotics relative to rifampicin” value in assay [1] is listed as “more potent than rifampicin”. Consider “thio-S4497 WT (V8), LC V205C-(thiostrepton) [AAC 128]”, for which the Macrophage assay activity in assay [4] is recorded as 0.

For the molecule “thio-S4497-HC-A118C-MC-vc-PAB-(clindamycin) [AAC 101]”, the Macrophage assay activity in assay [4] is 0.

Molecule “thio-S4497-HC-A118C-MC-vc-PAB-(novobiocin) [AAC 102]” showed a Macrophage assay activity in assay [4] of 0. On the same count and under the same terms, the same measure for “thio-S4497-HC-A118C-MC-vc-PAB-(retapamulin) [AAC 103]”: 0; for “thio-S4497-HC-A118C-MC-vc-PAB-(triclosan) [AAC 109]”: 0.

Take “thio-S4497-HC-A118C-MC-vc-PABC-(GSK-2140944) [AAC 105]”: in assay [4], the Macrophage assay activity is 0. “thio-S4497-HC-A118C-MC-vc-PABC-(ampicillin) [AAC 113]” returned a Macrophage assay activity in assay [4] of 0. Consider “thio-S4497-HC-A118C-MC-vc-PABC-(daptomycin) [AAC 104]”, for which the Macrophage assay activity in assay [4] is on record as 0.

With “thio-S4497-HC-A118C-MC-vc-PABC-(pipBOR) [S4497-pipBOR AAC 102]”, the “clearance of infection (peritoneal wash and kidney)” value with MRSA (USA300) is reported as “cleared the infection to below the limit of detection”. The “efficacy at 50 mg/Kg (kidney bacterial load)” value in the assay with MRSA (USA300 strain) [5] (50 mg/Kg IV 30 minutes post infection, kidneys 4 days post infection) is “cleared the infection in all of the mice tested; also recorded: effective”. In addition, in the assay on MRSA (USA300 strain) [5] (doses below 50 mg/Kg down to 2 m/Kg, 30 minutes after infection), the “efficacy at lower doses” value is recorded as “only partially efficacious”. For the same molecule, the “inhibition of bacterial growth by AAC not pre-treated with cathepsin B” value in the assay on MRSA [6] is listed as “did not result in inhibition of bacterial growth”. The “intracellular killing of MRSA” value in the assay with MRSA (USA300 strain) [7] is reported as “effectively killed”. In the case of “thio-S4497-HC-A118C-MC-vc-PABC-(sitafloxacin) [AAC 107]”, in assay [4], the CFU/well after treatment entry was “about 5,000 CFU/well” and the Macrophage assay activity entry is “weak”. In the same order, the values of “thio-S4497-HC-A118C-MC-vc-PABC-(teicoplanin) [AAC 108]” are “about 500 CFU/well” and “weak”. Molecule “thio-S4497-v8-LC-V205C-(azithromycin) [AAC 121]” returned a Macrophage assay activity in assay [4] of 0. As for “thio-S4497-v8-LC-V205C-(thiostrepton) [AAC 141]”, the Macrophage assay activity in assay [4] was 0. Same read-out and setting: under “thio-S4497-v8-LC-V205C-MC-vc-PABC-(teicoplanin) [AAC 140]” stands 0. Take “thio-S4497-v8-LC-cys-MC-vc-PAB-(nosiheptide) [AAC 149]”: the Macrophage assay activity in assay [4] is given as 0.
